From the NIST ThermoML archive (doi:10.1021/acs.jced.8b00132)
Values joined by “and” are separate entries in the source; they are usually repeats but may differ in a detail not shown here. Identical values can stand only once.

Conditions: transient hot wire

O=C(C(F)(F)C(F)(F)F)C(F)(C(F)(F)F)C(F)(F)F [dodecafluoro-2-methylpentan-3-one]
Conditions | thermal conductivity
302.17 K, 68802 kPa, Liquid | 0.07801 W/m/K
302.17 K, 68805 kPa, Liquid | 0.07819 W/m/K
302.18 K, 185 kPa, Liquid | 0.05684 W/m/K
302.19 K, 184 kPa, Liquid | 0.05683 W/m/K
302.19 K, 38646 kPa, Liquid | 0.07042 W/m/K
302.19 K, 38653 kPa, Liquid | 0.07047 W/m/K
302.2 K, 4505 kPa, Liquid | 0.05895 W/m/K
302.2 K, 4509 kPa, Liquid | 0.05896 W/m/K
302.2 K, 22376 kPa, Liquid | 0.06575 W/m/K
302.2 K, 22378 kPa, Liquid | 0.06574 W/m/K
302.21 K, 181 kPa, Liquid | 0.05683 W/m/K and 0.05685 W/m/K
302.21 K, 9730 kPa, Liquid | 0.06078 W/m/K
302.21 K, 9731 kPa, Liquid | 0.06057 W/m/K
302.22 K, 29975 kPa, Liquid | 0.06769 W/m/K and 0.06766 W/m/K
302.23 K, 38 kPa, Gas | 0.01171 W/m/K
302.24 K, 34 kPa, Gas | 0.01182 W/m/K
302.24 K, 36 kPa, Gas | 0.01189 W/m/K
302.25 K, 34 kPa, Gas | 0.01189 W/m/K
302.26 K, 4429 kPa, Liquid | 0.05855 W/m/K
302.26 K, 4432 kPa, Liquid | 0.05857 W/m/K
302.26 K, 15648 kPa, Liquid | 0.06339 W/m/K
302.26 K, 22430 kPa, Liquid | 0.06528 W/m/K
302.27 K, 15647 kPa, Liquid | 0.06339 W/m/K
302.27 K, 22437 kPa, Liquid | 0.06518 W/m/K
302.29 K, 121 kPa, Liquid | 0.05692 W/m/K
302.3 K, 121 kPa, Liquid | 0.057 W/m/K
302.31 K, 92 kPa, Liquid | 0.05649 W/m/K
302.31 K, 97 kPa, Liquid | 0.05641 W/m/K
302.35 K, 9934 kPa, Liquid | 0.0612 W/m/K
302.35 K, 9940 kPa, Liquid | 0.06118 W/m/K
302.46 K, 4504 kPa, Liquid | 0.05889 W/m/K
302.47 K, 4505 kPa, Liquid | 0.05889 W/m/K
302.48 K, 184 kPa, Liquid | 0.05681 W/m/K
302.49 K, 184 kPa, Liquid | 0.05679 W/m/K
302.5 K, 181 kPa, Liquid | 0.05679 W/m/K and 0.05678 W/m/K
302.52 K, 15868 kPa, Liquid | 0.06291 W/m/K
302.53 K, 15872 kPa, Liquid | 0.06281 W/m/K
302.54 K, 68548 kPa, Liquid | 0.07804 W/m/K
302.54 K, 68549 kPa, Liquid | 0.07799 W/m/K
302.57 K, 121 kPa, Liquid | 0.05687 W/m/K and 0.05695 W/m/K
302.58 K, 58446 kPa, Liquid | 0.0756 W/m/K
302.59 K, 58445 kPa, Liquid | 0.07563 W/m/K
302.6 K, 34 kPa, Gas | 0.01198 W/m/K
302.61 K, 36 kPa, Gas | 0.01183 W/m/K
302.61 K, 38 kPa, Gas | 0.01193 W/m/K
302.61 K, 68790 kPa, Liquid | 0.07804 W/m/K
302.61 K, 68801 kPa, Liquid | 0.07795 W/m/K
302.63 K, 48154 kPa, Liquid | 0.07294 W/m/K
302.63 K, 48162 kPa, Liquid | 0.07285 W/m/K
302.65 K, 15984 kPa, Liquid | 0.06295 W/m/K
302.65 K, 15986 kPa, Liquid | 0.06304 W/m/K
302.68 K, 38648 kPa, Liquid | 0.07035 W/m/K
302.69 K, 38638 kPa, Liquid | 0.07035 W/m/K
302.72 K, 9724 kPa, Liquid | 0.06082 W/m/K
302.72 K, 9726 kPa, Liquid | 0.06095 W/m/K
302.73 K, 29973 kPa, Liquid | 0.06771 W/m/K
302.74 K, 29982 kPa, Liquid | 0.06772 W/m/K
302.78 K, 4430 kPa, Liquid | 0.0586 W/m/K
302.79 K, 4428 kPa, Liquid | 0.05856 W/m/K
302.79 K, 22448 kPa, Liquid | 0.06525 W/m/K
302.8 K, 22443 kPa, Liquid | 0.06527 W/m/K
302.85 K, 95 kPa, Liquid | 0.05658 W/m/K
302.86 K, 96 kPa, Liquid | 0.05645 W/m/K
303.01 K, 36 kPa, Gas | 0.01199 W/m/K
303.02 K, 38 kPa, Gas | 0.01194 W/m/K
303.03 K, 35 kPa, Gas | 0.01196 W/m/K
303.04 K, 68537 kPa, Liquid | 0.07796 W/m/K
303.04 K, 68564 kPa, Liquid | 0.07806 W/m/K
303.07 K, 15868 kPa, Liquid | 0.06292 W/m/K
303.07 K, 15869 kPa, Liquid | 0.06282 W/m/K
303.1 K, 58422 kPa, Liquid | 0.07541 W/m/K
303.1 K, 58439 kPa, Liquid | 0.07546 W/m/K
303.11 K, 68765 kPa, Liquid | 0.07805 W/m/K
303.11 K, 68772 kPa, Liquid | 0.07794 W/m/K
303.16 K, 48157 kPa, Liquid | 0.07292 W/m/K
303.17 K, 48152 kPa, Liquid | 0.07285 W/m/K
303.2 K, 15974 kPa, Liquid | 0.06276 W/m/K
303.2 K, 15979 kPa, Liquid | 0.06281 W/m/K
303.22 K, 38643 kPa, Liquid | 0.07047 W/m/K
303.23 K, 38644 kPa, Liquid | 0.0705 W/m/K
303.29 K, 9716 kPa, Liquid | 0.06072 W/m/K
303.29 K, 9741 kPa, Liquid | 0.06069 W/m/K
303.3 K, 29978 kPa, Liquid | 0.06778 W/m/K
303.3 K, 29993 kPa, Liquid | 0.06773 W/m/K
